Results from PubChem BioAssay AID2060355 (Molecular Pharmacology Branch, DTP, NCI, 2025).

Tested on: 485368-065-R4-J2-PDC spheroids with HUVEC/MSC, viability
Test: Anticancer human tumor 485368-065-R4-J2-PDC patient-derived pancreatic carcinoma cell line growth inhibition [TAK]
Settings: for IC50: curve of first compound; for viability, T/C: stronger effect = lower value
How it was run: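 Spheroids of 60% malignant cells, 25% HUVEC and 15% hMSC were exposed to targeted agents combined with TAK-243 or ipatasertib. Concentrations started at or near clinical Cmax (10 microM if unknown) and descended in half-log steps.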

[1] = second compound 0.3 µM, first compound 0.0316 µM
[2] = second compound 0.3 µM, first compound 0.1 µM
[3] = second compound 0.3 µM, first compound 0.316 µM
[4] = second compound 0.3 µM, first compound 1 µM
[5] = second compound 0.949 µM, first compound 0.0316 µM
[6] = second compound 0.949 µM, first compound 0.1 µM
[7] = second compound 0.949 µM, first compound 0.316 µM
[8] = second compound 0.949 µM, first compound 1 µM
[9] = second compound 3 µM, first compound 0.0316 µM
[10] = second compound 3 µM, first compound 0.1 µM
[11] = second compound 3 µM, first compound 0.316 µM
[12] = second compound 3 µM, first compound 1 µM
[13] = second compound 9.49 µM, first compound 0.0316 µM
[14] = second compound 9.49 µM, first compound 0.1 µM
[15] = second compound 9.49 µM, first compound 0.316 µM
[16] = second compound 9.49 µM, first compound 1 µM
[17] = second compound 30 µM, first compound 0.0316 µM
[18] = second compound 30 µM, first compound 0.1 µM
[19] = second compound 30 µM, first compound 0.316 µM
[20] = second compound 30 µM, first compound 1 µM
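Note: spheroids exposed to compounds for seven days before readout.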
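Throughout, for viability, T/C: 100% = DMSO vehicle control wells.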

Structure (SMILES) | IC50 (second compound 0.3 µM) | IC50 (second compound 0.949 µM) | IC50 (second compound 3 µM) | IC50 (second compound 9.49 µM) | IC50 (second compound 30 µM) | viability, T/C [1] | viability, T/C [2] | viability, T/C [3] | viability, T/C [4] | viability, T/C [5] | viability, T/C [6] | viability, T/C [7] | viability, T/C [8] | viability, T/C [9] | viability, T/C [10] | viability, T/C [11] | viability, T/C [12] | viability, T/C [13] | viability, T/C [14] | viability, T/C [15] | also measured
COc1c(OCCCN2CCOCC2)ccc2c3n(c(=NC(=O)c4cnc(N)nc4)nc12)CCN3 + CC(C)NCC(C(=O)N1CCN(c2ncnc3c2C(C)CC3O)CC1)c1ccc(Cl)cc1 | 133 nM | 161 nM | 75.6 nM | 45.8 nM | 15.1 nM | 94.5% | 55.6% | 35.1% | 31.2% | 84.6% | 61.1% | 34.3% | 33.2% | 66.5% | 45.6% | 31.5% | 31.2% | 56.6% | 37.2% | 28.4% | viability, T/C (second compound 0.3 µM, first compound 0.00316 µM): 91.7%; viability, T/C (second compound 0.3 µM, first compound 0.01 µM): 76.2%; viability, T/C (second compound 0.949 µM, first compound 0.00316 µM): 96.3%; viability, T/C (second compound 0.949 µM, first compound 0.01 µM): 100%; viability, T/C (second compound 3 µM, first compound 0.00316 µM): 95.9%; viability, T/C (second compound 3 µM, first compound 0.01 µM): 86.8%; viability, T/C (second compound 9.49 µM, first compound 0.00316 µM): 81%; viability, T/C (second compound 9.49 µM, first compound 0.01 µM): 72.8%; viability, T/C [16]: 28%; viability, T/C (second compound 30 µM, first compound 0.00316 µM): 60.4%; viability, T/C (second compound 30 µM, first compound 0.01 µM): 56.5%; viability, T/C [17]: 38.8%; viability, T/C [18]: 29.8%; viability, T/C [19]: 25.3%; viability, T/C [20]: 26.3%
Cc1nc(NC(=O)N2CCCC2C(N)=O)sc1-c1ccnc(C(C)(C)C(F)(F)F)c1 (stereo not given) + CC(C)NCC(C(=O)N1CCN(c2ncnc3c2C(C)CC3O)CC1)c1ccc(Cl)cc1 | > 10000 nM | 9660 nM | 7350 nM | 2670 nM | 1220 nM | 88.2% | 79.8% | 81.9% | 88.3% | 93.9% | 92% | 102% | 93.5% | 95.1% | 92.2% | 86% | 73.7% | 80.3% | 85.2% | 74.1% | viability, T/C (second compound 0.3 µM, first compound 3.16 µM): 75.9%; viability, T/C (second compound 0.3 µM, first compound 10 µM): 51.1%; viability, T/C (second compound 0.949 µM, first compound 3.16 µM): 73.4%; viability, T/C (second compound 0.949 µM, first compound 10 µM): 49.3%; viability, T/C (second compound 3 µM, first compound 3.16 µM): 64.3%; viability, T/C (second compound 3 µM, first compound 10 µM): 44.8%; viability, T/C [16]: 66%; viability, T/C (second compound 9.49 µM, first compound 3.16 µM): 46.8%; viability, T/C (second compound 9.49 µM, first compound 10 µM): 37.2%; viability, T/C [17]: 71.5%; viability, T/C [18]: 71.2%; viability, T/C [19]: 59.5%; viability, T/C [20]: 53.5%; viability, T/C (second compound 30 µM, first compound 3.16 µM): 39.7%; viability, T/C (second compound 30 µM, first compound 10 µM): 28.3%
